Results on eleven compounds are retold here after patent US20230203060A1 (GENFLEET THERAPEUTICS (SHANGHAI) INC., priority 2020, published 2023).

The structures appear in SMILES notation. Where only a bound is given, the exact number is not on record here.

Type in all cases: cell-based, human
Test [1] concerns KRAS G12C mutant NCI-H358 cells. As to the kind of experiment: Cell proliferation inhibition experiment, 3D spheroid, CellTiter-Glo, NCI-H358. The following applies: Homo sapiens, NCI-H358, 120 h, NCI-H358 (KRAS G12C mutant) 3D spheroid, 5 days with compound, CellTiter-Glo; read-out: H358 IC50. Summed up: (§1)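 CellTiter-Glo luminescence after 5 days' compound treatment (3.16-fold series, 0.1% DMSO) of overnight-formed spheroids in 2% FBS medium: H358 seeded at 800 cells/well in RPMI-1640, A549 at 400 cells/well in F-12K. IC50 derived by four-parameter fit of inhibition normalized to DMSO control and blank.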
A general note: In ATP-based viability assays light output follows the ATP content of the culture.

The test system of test [2] is A549 cells (KRAS G12S mutant). Kind of test: Cell proliferation inhibition experiment, 3D spheroid, CellTiter-Glo, A549. The conditions noted are these: Homo sapiens, A549, 120 h, A549 (KRAS G12S mutant) 3D spheroid, 5 days with compound, CellTiter-Glo; read-out: A549 IC50. Summed up:
as §1

The subject of test [3] is KRAS G12C mutant MIA PaCa-2 cells. Kind of test: Cell proliferation inhibition experiment, 3D spheroid, CellTiter-Glo, MIA PaCa-2. The following applies: Homo sapiens, MIA PaCa-2, 120 h, 3D cell model in 384-well spheroid plate, 5 days, CellTiter-Glo; read-out: MIA-PaCa2 IC50. Summed up:
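Luminescent ATP read-out (CellTiter-Glo) after 5-day compound treatment of spheroids formed overnight from 200 MIA PaCa-2 cells/well; compounds in 3.16-fold series, 0.1% DMSO final. IC50 derived by four-parameter fit of percent inhibition, normalized to DMSO control and medium blank.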

The IC50 is the concentration at which inhibition is half-maximal. As for `C=CC(=O)N1CCN2C(=O)c3c(N4C[C@H](N(C)CCO)CC4(C)C)nc(-c4ccccc4F)c(Cl)c3OC[C@H]2C1` (single isomer, unassigned) [Z658-2], the 50% inhibitory concentration (IC50) in test [1] stood at 12 nM; in test [2] it was 4720 nM; in test [3], 31 nM.

On to `C=CC(=O)N1CCN2C(=O)c3c(N4C[C@@H](N(C)CC(F)F)CC4(C)C)nc(-c4ccccc4F)c(Cl)c3OC[C@H]2C1` (single isomer, unassigned) [Z659-1], for which the IC50 was 5 nM in test [1], 6180 nM in test [2] and 16 nM in test [3].

Take `C=CC(=O)N1CCN2C(=O)c3c(N4CC(N(C)CC(F)F)CC4(C)C)nc(-c4ccccc4F)c(Cl)c3OCC2C1` (single isomer, unassigned) [Z659-2]: the IC50 in test [1] came out at 1 nM; in test [2], 2660 nM; in test [3] it was 4 nM.

Consider `C=CC(=O)N1CCN2C(=O)c3c(N4C[C@@H](N(C)CCF)CC4(C)C)nc(-c4ccccc4F)c(Cl)c3OC[C@H]2C1` (single isomer, unassigned) [Z660-1], for which the IC50 in test [1] is 1.7 nM; in test [2], 3250 nM; in test [3] it was 7.7 nM.

`C=CC(=O)N1CCN2C(=O)c3c(N4C[C@@H](NC)CC4(C)C)nc(-c4ccccc4F)c(Cl)c3OC[C@H]2C1` (single isomer, unassigned) [Z661-1]: the IC50 in test [1] was found to be 6 nM; in test [2] it was 2900 nM; in test [3] it was 14 nM.

As to `C=CC(=O)N1CCN2C(=O)c3c(N4C[C@@H](NCC(F)(F)F)CC4(C)C)nc(-c4ccccc4F)c(Cl)c3OC[C@H]2C1` (single isomer, unassigned) [Z662-1], the half-inhibitory concentration (IC50) in test [1] stood at 3 nM; in test [2], 4090 nM; in test [3] it was 11 nM.

Regarding `C=CC(=O)N1CCN2C(=O)c3c(N[C@H](C)c4ccccc4)nc(-c4c(O)cccc4F)c(Cl)c3OC[C@H]2C1` [Z28, (6aR)-8-acryloyl-4-chloro-3-(2-fluoro-6-hydroxyphenyl)-1-(((R)-1-phenylethyl)amino)-6,6a,7,8,9,10-hexahydro-12H-pyrazino[2,1-c]pyrido[3,4-f][1,4]oxazepin-12-one], the IC50 in test [1] was 62 nM; in test [2], over 5000 nM; in test [3] it was 150 nM.

In the case of `C=CC(=O)N1CCN2C(=O)c3c(N4CCOC[C@@H]4C)nc(-c4c(O)cccc4F)c(Cl)c3OC[C@H]2C1` [Z32], the IC50 in test [1] was 9 nM; in test [2], over 5000 nM; in test [3] it was 11 nM.

For the compound `C=CC(=O)N1CCN2C(=O)c3c(N4CCOC(C)(C)C4)nc(-c4c(O)cccc4F)c(Cl)c3OC[C@H]2C1` [Z37, (6aR)-8-acryloyl-4-chloro-1-(2,2-dimethylmorpholino)-3-(2-fluoro-6-hydroxyphenyl)-6,6a,7,8,9,10-hexahydro-12H-pyrazino[2,1-c]pyrido[3,4-f][1,4]oxazepin-12-one], the IC50 is 9 nM in test [1], over 30000 nM in test [2] and 12 nM in test [3].

As for `C=CC(=O)N1CCN2C(=O)c3c(N4CCC5CC54)nc(-c4c(O)cccc4F)c(Cl)c3OC[C@H]2C1` (stereo partly drawn) [Z39, (6aR)-8-acryloyl-1-(2-azabicyclo[3.1.0]hexart-2-yl)-4-chloro-3-(2-fluoro-6-hydroxyphenyl)-6,6a,7,8,9,10-hexahydro-12H-pyrazino[2,1-c]pyrido[3,4-f][1,4]oxazepin-12-one], the IC50 in test [1] came out at 9 nM; in test [2], 3050 nM; in test [3] it was 20 nM.

`C=CC(=O)N1CCN2C(=O)c3c(NC45CC(C4)C5)nc(-c4c(O)cccc4F)c(Cl)c3OC[C@H]2C1` [Z41, (6aR)-8-acryloyl-1-(bicyclo [1.1.1]pentan-1-ylamino)-4-chloro-3-(2-fluoro-6-hydroxyphenyl)-6,6a,7,8,9,10-hexahydro-12H-pyrazino[2,1-c]pyrido[3,4-f][1,4]oxazepin-12-one]: the IC50 was determined as 22 nM in test [1], 1220 nM in test [2] and 73 nM in test [3].
